The results in this text go back to US8809280B2, “Therapeutic peptides” (Lytix Biopharma AS, priority 2009, dated 2014).

Holding throughout (format): cell-based
The test system of assay [1] is Staphylococcus aureus (ATTC 25923). Kind of assay: microbe, parasite or virus in culture. Particulars: Example 2, values separated by / are repeat tests. The gist of the method:
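Di-TFA salts tested in duplicate at 0.5–200 μg/ml against exponential-phase bacteria at 2×10^6 cfu/ml grown in 2% peptone water. Growth judged by well turbidity, with no-peptide and gentamicin controls.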

The subject of assay [2] is methicillin resistant Staphylococcus aureus (ATCC 33591). Kind of assay: microbe, parasite or virus in culture. Conditions: Staphylococcus aureus, ATCC 33591 / MRSA, Example 2; values separated by / are repeat tests; read-out: Antimicrobial potency (MIC) MRSA. In outline:
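Di-TFA salts tested in duplicate at 200 down to 0.5 μg/ml against exponentially grown bacteria at 2×10^6 cfu/ml. Growth judged by well turbidity, with no-peptide and gentamicin controls.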

Another assay deals with human red blood cells. Kind of assay: cells. Particulars: Homo sapiens, Erythrocyte; Example 2; highest concentration tested 1000 μg/ml; * low solubility in the test media; read-out: Toxicity RBC (EC50). In outline: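 Washed heparinized RBCs, diluted to 10% hematocrit then to 1% v/v final, incubated with compounds in PBS (1–1000 μg/mL) for 1 h at 37 °C with agitation. Hemoglobin release read at 405 nm against PBS (0%) and 0.1% Triton X-100 (100%); value reported is concentration giving 50% hemolysis.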

Assay [3] relates to MRC-5. Kind of assay: Toxicity assay MRC-5. Particulars: highest concentration tested 500 μg/ml. Here is the method:
Cells for Toxicity Studies Used MRC-5 and human RBC MRC-5 assay: 500 μg/ml

For the next assay, the system named is HT-29. Kind of assay: Compound 7 panel screening. Particulars: Homo sapiens, colon colorectal adenocarcinoma. Here is the method: (§1) Compound 7 described in Example 2 was screened against two normal cell lines and nine cancer cell lines.
(§2) All cell lines were of human origin. Stock solution of compound 7 was dissolved in assay media containing 10% DMSO. Three parallel experiments were performed against each cell line.

The next assay concerns HUV-EC-C. Kind of assay: Compound 7 panel screening. Particulars: Homo sapiens, umbilical vein, normal, endothelial. Here is the method:
as §1, §2

For another assay, the system named is MDA-MB435. Kind of assay: Compound 7 panel screening. Conditions: Homo sapiens, MDA-MB-435, breast carcinoma. Here is the method:
as §1, §2

Another assay deals with UT-SCC-24A. Kind of assay: Compound 7 panel screening. Particulars: Homo sapiens, tongue squamous oral carcinoma. Here is the method:
as §1, §2

Assay [4] has as its system MRC-5. Kind of assay: Compound 7 panel screening. Particulars: Homo sapiens, MRC5, lung, normal, fibroblast. Here is the method: as §1, §2
In a further assay the test system is DU-145. Kind of assay: Compound 7 panel screening. Conditions: Homo sapiens, prostate carcinoma. Here is the method: as §1, §2
For another assay, the system named is OVCAR-3. Kind of assay: Compound 7 panel screening. Conditions: Homo sapiens, ovary adenocarcinoma. Here is the method:
as §1, §2

The subject of a further assay is FEMX. Kind of assay: Compound 7 panel screening. Conditions: Homo sapiens, Fem-X, skin melanoma. Here is the method:
as §1, §2

The subject of a further assay is Kelly. Kind of assay: Compound 7 panel screening. Particulars: Homo sapiens, neuroblastoma. Here is the method: as §1, §2
Another assay relates to UT-SCC-34A. Kind of assay: Compound 7 panel screening. Conditions: Homo sapiens, supraglottic larynx squamous oral carcinoma. Here is the method: as §1, §2
Another assay deals with Ramos. Kind of assay: Compound 7 panel screening. Conditions: Homo sapiens, Burkitt's lymphoma. Here is the method:
as §1, §2

Assay [5] deals with methicillin resistant Staphylococcus epidermidis (ATCC 27626). Kind of assay: microbe, parasite or virus in culture. Particulars: Example 2, values separated by / are repeat tests. The gist of the method:
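Exponentially grown bacteria (2% peptone water) at 2×10^6 cfu/ml exposed in duplicate to di-TFA salts at 0.5–200 μg/ml. Growth or no growth judged by well turbidity; no-peptide and gentamicin controls included.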

The test system of assay [6] is Escherichia coli (ATTC 25922). Kind of assay: microbe, parasite or virus in culture. Particulars: Escherichia coli, Example 2; values separated by / are repeat tests; read-out: Antimicrobial potency (MIC) E. coli. In outline: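 Broth dilution in 2% Bacto Peptone water, inoculum 2×10^6 cfu/ml of exponential-phase bacteria; compounds (di-TFA salts) tested in duplicate at 200 down to 0.5 μg/ml. Growth judged by well turbidity, with no-peptide negative and gentamicin positive controls.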

The subject of another assay is A20. Kind of assay: cells. Here is the method:
Cancer Cell Lines A20 or MethA Anticancer assays: 500 μg/ml

Values after ≈ are worked out from the molar mass of the structure shown.

The EC50 is the concentration needed to bring the measured effect to its halfway point. A word on the IC50: it is the concentration that inhibits the measured activity by half. Lower therefore signals inhibition by little substance. Take `NCCNC(=O)C(CN)(Cc1ccc2ccccc2c1)Cc1ccc2ccccc2c1` [Compound 7, 3-amino-N-(2-aminoethyl)-2,2-bis(naphthalen-2-ylmethyl)propanamide]: the “Antimicrobial potency (MIC) S. aureus” value in [1] was 5 µg/mL. The MIC stood at 2.5 µg/mL (≈ 6.07 µM) in assay [1] (Staphylococcus aureus, read-out: Antimicrobial potency (MIC) S. aureus); 5 µg/mL (≈ 12.1 µM) in [2]; 2.5 µg/mL (≈ 6.07 µM) in assay [5] (Staphylococcus epidermidis, ATCC 27626 / MRSE, read-out: Antimicrobial potency (MIC) MRSE); 15 µg/mL (≈ 36.4 µM) in assay [6]. In the assay on human red blood cells, the EC50 turned out to be 292 µg/mL (≈ 710 µM). Also, the “Toxicity MRC-5” value with MRC-5 [3] (Example 2) stood at 14 µg/mL. For the same molecule, the IC50 in the assay on MRC-5 [3] (Homo sapiens, MRC5, Example 2) is 13.5 µg/mL (≈ 32.8 µM); in the assay on HT-29, 15.4 µg/mL (≈ 37.5 µM); in the assay on HUV-EC-C, 3.81 µg/mL (≈ 9.26 µM); in the assay on MDA-MB435, 6.54 µg/mL (≈ 15.9 µM); in the assay with UT-SCC-24A it was 14.2 µg/mL (≈ 34.5 µM); in the assay on MRC-5 [4], 8.21 µg/mL (≈ 19.9 µM). Moreover, the IC50 came to 15.2 µg/mL (≈ 37 µM) in the assay on DU-145; 18.1 µg/mL (≈ 43.9 µM) in the assay on OVCAR-3; 17.1 µg/mL (≈ 41.6 µM) in the assay on FEMX; 3.9 µg/mL (≈ 9.48 µM) with Kelly; 16.2 µg/mL (≈ 39.3 µM) in the assay on UT-SCC-34A; 2.61 µg/mL (≈ 6.34 µM) in the assay with Ramos. In addition, the “Antimicrobial potency (MIC) MRSE” value in assay [5] was found to be 5 µg/mL. Further, the “Anticancer potency (IC50) A20” value in the assay on A20 (Example 2, highest concentration tested 500 μg/ml, * low solubility in the test media (Table 2)) stood at 0.7 µg/mL. The “Anti-Cancer Selectivity MRC-5/A20” value with A20 (ratio of MRC-5 to A20 values) is 19.3-20. The “Anti-Cancer Selectivity RBC/A20” value with A20 (ratio of RBC EC50 to A20 IC50) came to 417.
